Measurements reported in patent publication US20240277743A1, “RESTORING PHYSIOLOGY WITH SMALL MOLECULE MIMICS OF MISSING PROTEINS” (The Board of Trustees Of The University Of Illinois, priority 2014, published 2024).

Experiments:
Format in all cases: cell-based, Saccharomyces cerevisiae
trk1Δtrk2Δ yeast = assay: Sustainable restoration of cell growth assay (max OD600, doubling time)
Experimental: Sustainable restoration of cell growth assay. Wild type and trk1 Δtrk2Δ yeast were treated as described in the functional complementation experiment described above, with the trk1 Δtrk2Δ yeast treated with 125 nM AmB. The OD600 was measured every hour for 24 hours, including a reading at time zero. Wild type yeast were then streaked onto normal potassium YPAD agar plates and AmB-rescued TrklAtrk2Δ yeast were streaked onto AmB-containing (0.125 μM) normal potassium YPAD agar plates. These agar plates were then incubated at 30° ° C. for about 48 hours. The same procedure was then repeated for over 42 days, measuring the max OD600 and doubling time every three days. Doubling time was determined using the following equation: Td=(t2−t1)×[log(2)/log (q2/q1)], where t2 and t1 represent the time at the two points and q2 and q1 represent the OD600 values in the exponential phase of growth (OD600 from 0.2 to 0.6).

trk1Δtrk2Δ cells [1] = assay: Cell viability assay (propidium iodide staining); settings: 125 nM AmB, 24 hours, FIG. 2H
Experimental: Cell viability assay. WT and trk1 Δtrk2Δ cells were inoculated in high potassium (100 mM KCl) YPAD. Starter cultures were grown at 30° ° C. for 14-15 hours. Cells were then cultured in high potassium YPAD at 30° ° C. for 2-2.5 hours. 100 μL of a 0.25 mg/mL propidium iodide (PI. Sigma-Aldrich P4864) solution was prepared. After 2-2.5 hours, cells were centrifuged at 800 g for 5 minutes, at 23° C. The supernatant was decanted, cells were resuspended in 40 mL of high potassium YPAD, vortexed, and centrifuged. The wash step was repeated. After pouring off the supernatant, cells were resuspended in 15 mL of high potassium YPAD, vortexed, and diluted to an OD600 of 0.5. To set one (WT, WT+PI, trk1Δtrk2Δ, and trk1Δtrk2Δ+PI) and set two (WT+PI+AmB, trk1 Δtrk2Δ+PI+AmB), 26.4 μL of DMSO were added to 1 mL aliquots of WT and trk1Δtrk2Δ, and incubated at 30° C. for 30 minutes. A 1% w/v low gelling temperature agarose (Sigma-Aldrich A9414) was prepared in normal potassium (10 mM) YPAD. When set one incubation completed, cells were pulse centrifuged, supernatant was removed, and resuspended in normal potassium YPAD to wash. […] The total number of PI stained cells was subtracted from the total cells recorded, and divided by total cells to give % viability. At least 200 cells were recorded per treatment group and 4 independent sets of data were obtained.

trk1Δtrk2Δ cells [2] = assay: 86Rb+ uptake assay; settings: 3 μM; FIG. 2F
Experimental: ^86Rb^+ uptake assay. The procedure for 86Rb uptake was adapted from Mulet, J. M. et al. Mol. Cell. Biol. 19, 3328-3337 (1999). Overnight yeast cultures were grown as described above. The supernatant was poured off, and the cells were resuspended in sterile water. This wash was repeated two more times. The cells were then resuspended in 40 mL of the potassium starvation/uptake buffer (50 mM succinic acid, 2% glucose, adjusted to pH 5.5 with Tris). After 3 hour incubation in the potassium starvation buffer, cells were centrifuged and washed twice with sterile water. Cells were resuspended in 1 mL of the potassium starvation/uptake buffer. Cell concentration was determined using an INCYTO®; Neubauer disposable hemocytometer, and wild type S. cerevisiae and trk1Δtrk2Δ cells were diluted to the same cell density. 700 μL of the yeast suspension was added to a 1.5 mL Eppendorf tube. After a 5 minute pre-incubation in the potassium starvation/uptake medium, AmB or C35deOAmB was added (final concentration 3 μM) as a DMSO solution. ^86RbCl (1.1 μCi) was then added to the reaction mixtures. Reaction mixtures were vortexed to ensure a homogeneous solution. […] Moist filters were transferred to plastic vials for measuring radioactivity. Radioactivity was monitored using a Perkin Elmer Wizard automatic gamma counter. […]

trk1Δtrk2Δ S. cerevisiae = assay: Growth of trk1Δtrk2Δ yeast on normal potassium YPAD agar plates containing AmB; settings: 125 nM in agar, normal potassium (10 mM)
Experimental: Yeast cell lines and growth conditions. Wild type S. cerevisiae (ATCC 9763), and trk1Δtrk2Δ S. cerevisiae (SGY 1528) were maintained with yeast peptone adenine dextrose (YPAD) growth media consisting of 10 g/L yeast extract, 20 g/L peptone, 20 g/L dextrose, 0.015 g/L adenine hemisulfate salt (final potassium concentration=10 mM). For solid media, 20 g/L agar was added to this same mixture. To culture trk1 Δtrk2Δ S. cerevisiae, additional potassium was added as potassium chloride (100 mM KCl). The media was adjusted to pH 5.0 using citric acid. After autoclave sterilization, dextrose was subsequently added as a sterile 20% w/v solution in water (dextrose solutions were filter-sterilized using a 0.22 μm filter). Liquid cultures were incubated at 30° C. on a rotary shaker (200 rpm). Solid cultures were maintained at 30° C. in an incubator. For solid media containing AmB (AK Scientific), the media was allowed to cool for 15 minutes before addition of AmB at a final concentration of 125 nM. AmB was added to the media as a solution in DMSO. Plates were examined for growth after 24-48 hours of incubation.

With `C[C@@H]1[C@H](O)[C@@H](C)/C=C/C=C/C=C/C=C/C=C/C=C/C=C/[C@H](O[C@@H]2O[C@H](C)[C@@H](O)[C@H](N)[C@@H]2O)C[C@@H]2O[C@](O)(C[C@@H](O)C[C@@H](O)[C@H](O)CC[C@@H](O)C[C@@H](O)CC(=O)O[C@H]1C)C[C@H](O)[C@H]2C(=O)O` [AmB, amphotericin B] the “doubling time of AmB-rescued trk1Δtrk2Δ cells relative to wild type” value (trk1Δtrk2Δ yeast; 125 nM AmB) was 1.7 times longer, the “sustainability of cell growth of AmB-rescued trk1Δtrk2Δ cells” value (trk1Δtrk2Δ yeast; 125 nM AmB, passed every 3 days for over a month, FIG. 2I) was “sustained, vigorous cell growth” and the “maximum cell density (max OD600) of treated trk1Δtrk2Δ cells” value (trk1Δtrk2Δ yeast; liquid culture after 24 h, versus wild type, FIG. 2G) was “matched that of the wild type”. The “cell viability of AmB-rescued trk1Δtrk2Δ cells versus wild type” value (trk1Δtrk2Δ cells [1]) was “Equivalent levels of cell viability”, the “86Rb+ uptake in trk1Δtrk2Δ cells” value (trk1Δtrk2Δ cells [2]) was “uptake was restored” and the “restoration of growth of the trk1Δtrk2Δ mutant on agar plate” value (trk1Δtrk2Δ S. cerevisiae) was “restored vigorous growth”.
